According to ChEMBL document CHEMBL1151292, “Antineoplastic activity and cytotoxicity of flavones, isoflavones, and flavanones” (1979):
≈ marks a conversion by molar mass, not a printed value. Calls of active or inactive are those of the source. Unless noted, the calls are words filed in the database; no cut-off is given here.

What was measured:
[1] = test system: Walker 256; assay: In vivo antitumor activity against rat Walker 256 cells; type: functional, organism-based
[2] = test system: CA-755; assay: In vivo antitumor activity against mouse CA-755 cells; type: functional, organism-based
[3] = test system: P388; assay: In vivo antitumor activity against mouse P388 cells; type: functional, organism-based
[4] = test system: CCRF S-180; assay: In vivo antitumor activity against mouse S180 cells; type: functional, organism-based
[5] = test system: L1210; assay: In vivo antitumor activity against mouse L1210 cells; type: functional, organism-based
[6] = test system: KB; assay: Cytotoxicity against human KB cells; type: functional; settings: read-out: ED50 (the source's name)
[7] = test system: B16; assay: In vivo antitumor activity against mouse B16 carcinoma cells; type: functional, organism-based
[8] = test system: Lewis lung carcinoma cell line; assay: In vivo antitumor activity against mouse LLC cells; type: functional, organism-based
[9] = test system: FV; assay: In vivo antitumor activity against mouse FV cells; type: functional, organism-based
[10] = test system: Rattus norvegicus; assay: In vivo antitumor activity against rat dunning leukemia cells; type: functional, organism-based
[11] = test system: P1798; assay: In vivo antitumor activity against mouse P1798 cells; type: functional, organism-based
[12] = test system: PX; assay: In vivo antitumor activity against hamster PX cells; type: functional, organism-based; settings: Cricetinae
[13] = test system: P1; assay: In vivo antitumor activity against hamster P1 cells; type: functional, organism-based; settings: Cricetinae

`O=c1c(O[C@@H]2O[C@H](CO)[C@@H](O)[C@H](O)[C@H]2O)c(-c2ccc(O)c(O)c2)oc2cc(O)cc(O)c12` [ISOQUERCETIN] was tested. Which Activity [1] did it give?
The Activity was “inactive”.

And the Activity [2]?
The Activity was “inactive”.

What about the Activity [3] of the same compound?
The Activity was “inactive”.

And the Activity [4]?
Its Activity is “inactive”.

And the Activity [5]?
Its Activity is “inactive”.

And the EC50 [6]?
The EC50 was > 100 µg/mL.

Which Activity [2] does the source give for `O=c1c(O)c(-c2ccccc2)oc2ccccc12` [FLAVONOL] here?
Its Activity is “inactive”.

And the Activity [7]?
Its Activity is “inactive”.

And the Activity [3]?
The Activity was “inactive”.

What about the Activity [4] of the same compound?
Its Activity is “inactive”.

And the Activity [8]?
The Activity was “inactive”.

What about the Activity [5] of the same compound?
The Activity was “inactive”.

What about the EC50 [6] of the same compound?
The EC50 was 0.2 µg/mL (≈ 0.839 µM).

Which Activity [9] does the source give for `COc1ccc(-c2coc3cc(OC)c(OC)c(OC)c3c2=O)cc1` here?
The Activity was “Active”.

What about the Activity [4] of the same compound?
The Activity was “inactive”.

And the EC50 [6]?
The EC50 was 34 µg/mL (≈ 99.3 µM).

Which Activity [3] does the source give for `COc1ccc(-c2cc(=O)c3c(O)cc(OC)cc3o2)cc1` [APIGENIN DIMETHYLETHER] here?
The Activity was “inactive”.

And the Activity [4]?
Its Activity is “inactive”.

And the Activity [8]?
The Activity was “inactive”.

What about the Activity [5] of the same compound?
Its Activity is “inactive”.

And the EC50 [6]?
Its EC50 is 45 µg/mL (≈ 151 µM).

Which results are given for `COc1cc(O)c2c(=O)cc(-c3ccccc3)oc2c1` [TECHTOCHRYSIN]?
Activity [10]: inactive; Activity [11]: inactive; Activity [5]: inactive; EC50 [6]: 49 µg/mL (≈ 183 µM)

For `COc1ccc(-c2oc3cc(O)cc(O)c3c(=O)c2OC)cc1O`, which Activity [3] is on record?
Its Activity is “inactive”.

What about the EC50 [6] of the same compound?
The EC50 was 2 µg/mL (≈ 6.06 µM).

What does the source list for `O=c1c(O)c(-c2c(O)cccc2O)oc2ccccc12`?
Activity [9]: inactive; Activity [4]: inactive; Activity [5]: inactive; EC50 [6]: > 100 µg/mL

With `O=C1c2c(O)cc(O)cc2OC(c2ccc(O)c(O)c2)C1O` (stereo not drawn) [TAXIFOLIN] as the compound, how does the Activity [1] read?
Its Activity is “inactive”.

What about the Activity [2] of the same compound?
Its Activity is “inactive”.

And the Activity [4]?
Its Activity is “inactive”.

What about the EC50 [6] of the same compound?
The EC50 was 40 µg/mL (≈ 131 µM).

How did the Activity [1] turn out when `O=c1cc(-c2ccccc2)oc2ccc(O)cc12` [6-HYDROXYFLAVONE] was run?
Its Activity is “inactive”.

And the Activity [4]?
The Activity was “inactive”.

What about the Activity [8] of the same compound?
Its Activity is “Active”.

What about the EC50 [6] of the same compound?
Its EC50 is 18 µg/mL (≈ 75.6 µM).

`CCOc1ccc(-c2coc3cc(C)c(OCC)c(C)c3c2=O)cc1` was tested. Which Activity [9] did it give?
Its Activity is “inactive”.

Which results are given for `O=c1cc(-c2ccc(O)cc2)oc2c(O)c(O)c(O)cc12`?
Activity [1]: inactive; Activity [8]: inactive; EC50 [6]: 22 µg/mL (≈ 76.9 µM)

Which results are given for `O=c1c(O)c(-c2ccc(O)cc2O)oc2cc(O)cc(O)c12`?
Activity [2]: inactive; Activity [3]: inactive; Activity [4]: inactive; Activity [5]: inactive

Which Activity [7] does the source give for `Cc1ccc2oc(-c3ccccc3)c(O)c(=O)c2c1` here?
The Activity was “inactive”.

And the Activity [3]?
Its Activity is “inactive”.

What about the Activity [4] of the same compound?
Its Activity is “inactive”.

And the Activity [5]?
Its Activity is “inactive”.

And the EC50 [6]?
Its EC50 is 2 µg/mL (≈ 7.93 µM).

Which Activity [9] does the source give for `COc1ccc(OC)c(-c2cc(=O)c3c(OC)c(OC)c(OC)c(OC)c3o2)c1` here?
Its Activity is “Active”.

And the Activity [4]?
The Activity was “inactive”.

And the EC50 [6]?
Its EC50 is 4 µg/mL (≈ 9.94 µM).

For `O=C1CC(c2ccccc2)Oc2ccccc21` (stereo not drawn), which Activity [2] is on record?
The Activity was “inactive”.

And the Activity [9]?
The Activity was “inactive”.

And the Activity [4]?
Its Activity is “inactive”.

What about the Activity [5] of the same compound?
Its Activity is “inactive”.

`Nc1c(-c2ccccc2)oc2ccc(Cl)cc2c1=O` was tested. Which Activity [9] did it give?
Its Activity is “inactive”.

What about the Activity [4] of the same compound?
The Activity was “inactive”.

And the Activity [5]?
The Activity was “inactive”.

And the EC50 [6]?
The EC50 was > 100 µg/mL.

With `COc1cc(OC)c(-c2cc(=O)c3c(OC)c(OC)c(OC)c(OC)c3o2)cc1OC` as the compound, how does the Activity [1] read?
The Activity was “Active”.

What about the Activity [8] of the same compound?
Its Activity is “inactive”.

What about the EC50 [6] of the same compound?
Its EC50 is 13 µg/mL (≈ 30.1 µM).

With `COc1cc2c(=O)cc(-c3ccc(O)cc3)oc2c(OC)c1OC` as the compound, how does the Activity [1] read?
Its Activity is “Active”.

And the Activity [9]?
The Activity was “Active”.

What about the Activity [4] of the same compound?
The Activity was “inactive”.

What about the Activity [8] of the same compound?
The Activity was “inactive”.

And the EC50 [6]?
Its EC50 is 0.7 µg/mL (≈ 2.13 µM).

For `COc1cc2occ(-c3ccc(O)cc3)c(=O)c2c(OC)c1O`, which Activity [9] is on record?
The Activity was “inactive”.

Which Activity [1] does the source give for `O=c1cc(-c2ccccc2)oc2cccc(O)c12` [5-HYDROXYFLAVONE] here?
Its Activity is “Active”.

What about the Activity [4] of the same compound?
Its Activity is “inactive”.

What about the Activity [8] of the same compound?
Its Activity is “inactive”.

And the EC50 [6]?
Its EC50 is 20 µg/mL (≈ 83.9 µM).

With `O=c1c(O)c(-c2cc(O)c(O)c(O)c2)oc2cc(O)cc(O)c12` [MYRICETIN] as the compound, how does the Activity [7] read?
The Activity was “inactive”.

And the Activity [5]?
Its Activity is “inactive”.

What about the EC50 [6] of the same compound?
Its EC50 is 15 µg/mL (≈ 47.1 µM).

How did the Activity [9] turn out when `COc1cccc(OC)c1-c1oc2ccccc2c(=O)c1O` was run?
Its Activity is “inactive”.

And the Activity [3]?
The Activity was “inactive”.

And the Activity [4]?
The Activity was “inactive”.

What about the Activity [5] of the same compound?
The Activity was “inactive”.

What about the EC50 [6] of the same compound?
The EC50 was 1 µg/mL (≈ 3.35 µM).

Which results are given for `O=c1cc(-c2ccc(O)cc2)oc2cc(O)cc(O)c12` [APIGENIN]?
Activity [10]: inactive; Activity [11]: inactive; Activity [5]: inactive; EC50 [6]: 7.4 µg/mL (≈ 27.4 µM)

Which Activity [1] does the source give for `C[C@@H]1O[C@@H](OC[C@H]2O[C@@H](Oc3c(-c4ccc(O)c(O)c4)oc4cc(O)cc(O)c4c3=O)[C@H](O)[C@@H](O)[C@@H]2O)[C@H](O)[C@H](O)[C@H]1O` here?
The Activity was “Active”.

And the Activity [2]?
Its Activity is “inactive”.

What about the Activity [4] of the same compound?
The Activity was “inactive”.

And the Activity [8]?
Its Activity is “inactive”.

What about the Activity [5] of the same compound?
Its Activity is “inactive”.

Which results are given for `COc1ccc(-c2cc(=O)c3c(OC)c(OC)c(OC)c(OC)c3o2)cc1OC` [NOBILETIN]?
Activity [1]: inactive; Activity [8]: inactive; EC50 [6]: 3 µg/mL (≈ 7.46 µM)

`COc1cc(OC)cc(-c2cc(=O)c3c(OC)c(OC)c(OC)c(OC)c3o2)c1` was tested. Which Activity [9] did it give?
Its Activity is “Active”.

And the Activity [4]?
The Activity was “inactive”.

What about the Activity [8] of the same compound?
The Activity was “inactive”.

And the EC50 [6]?
Its EC50 is 3 µg/mL (≈ 7.46 µM).

Which results are given for `COc1ccc2c(=O)c(C)c(-c3ccccc3)oc2c1`?
Activity [9]: Active; Activity [4]: inactive; Activity [5]: inactive; EC50 [6]: 43 µg/mL (≈ 161 µM)

`COc1ccc(-c2cc(=O)c3c(O)cc(O)cc3o2)cc1` [ACACETIN] was tested. Which Activity [2] did it give?
Its Activity is “inactive”.

And the Activity [3]?
Its Activity is “inactive”.

What about the Activity [4] of the same compound?
Its Activity is “inactive”.

What about the Activity [5] of the same compound?
Its Activity is “inactive”.

What about the EC50 [6] of the same compound?
Its EC50 is > 100 µg/mL.

Which results are given for `O=c1c(O)c(-c2ccc(O)c(O)c2)oc2cc(O)ccc12` [FISETIN]?
Activity [3]: inactive; Activity [4]: inactive; Activity [8]: inactive; Activity [5]: inactive; EC50 [6]: > 100 µg/mL

For `COc1ccc(-c2oc3cc(O)c(OC)c(O)c3c(=O)c2OC)cc1O` [CENTAUREIDIN], which Activity [3] is on record?
Its Activity is “inactive”.

And the EC50 [6]?
Its EC50 is 0.4 µg/mL (≈ 1.11 µM).

Which Activity [1] does the source give for `COc1ccc(-c2cc(=O)c3cc(OC)c(OC)c(OC)c3o2)cc1` here?
Its Activity is “inactive”.

What about the Activity [9] of the same compound?
Its Activity is “inactive”.

And the Activity [4]?
Its Activity is “inactive”.

And the Activity [8]?
The Activity was “inactive”.

What about the EC50 [6] of the same compound?
The EC50 was 5 µg/mL (≈ 14.6 µM).

With `COc1ccc(-c2coc3c(OC)c(OC)c(OC)c(OC)c3c2=O)cc1` as the compound, how does the Activity [9] read?
The Activity was “Active”.

What does the source list for `O=c1cc(-c2ccccc2)oc2cc(O)cc(O)c12` [CHRYSIN]?
Activity [1]: inactive; Activity [5]: inactive; EC50 [6]: 13 µg/mL (≈ 51.1 µM)

`COc1cc(OC)c(-c2oc3ccccc3c(=O)c2O)cc1OC` was tested. Which Activity [9] did it give?
Its Activity is “inactive”.

And the Activity [4]?
Its Activity is “inactive”.

What about the Activity [5] of the same compound?
Its Activity is “inactive”.

And the EC50 [6]?
Its EC50 is 5 µg/mL (≈ 15.2 µM).

Which results are given for `COc1ccc(-c2cc(=O)c3c(O)c(OC)c(O)cc3o2)cc1` [PECTOLINARIGENIN]?
Activity [1]: inactive; Activity [3]: inactive; Activity [4]: inactive; Activity [5]: inactive; EC50 [6]: 3 µg/mL (≈ 9.55 µM)

How did the Activity [12] turn out when `COc1ccc(-c2cc(=O)c3c(OC)c(OC)c(OC)c(OC)c3o2)cc1` [TANGERETIN] was run?
The Activity was “Active”.

And the Activity [2]?
Its Activity is “inactive”.

And the Activity [13]?
The Activity was “inactive”.

What about the Activity [4] of the same compound?
The Activity was “inactive”.

What about the Activity [5] of the same compound?
Its Activity is “inactive”.

And the EC50 [6]?
Its EC50 is 15 µg/mL (≈ 40.3 µM).

With `O=C1c2cc(O)c(O)cc2OC(c2ccc(O)c(O)c2)C1O` (stereo not drawn) as the compound, how does the Activity [3] read?
Its Activity is “inactive”.

And the Activity [4]?
Its Activity is “inactive”.

What about the Activity [5] of the same compound?
The Activity was “inactive”.
